Structures can show the parent of a compound that is named as a salt.
Tests used:
Notch1 = target: T1, Notch1 (Homo sapiens, UniProt P46531); assay: Notch1 Reporter Assay (CSL-responsive luciferase, doxycycline-induced Notch-ICD in 293A cells); assay type: cell-based; conditions: 25 ng/mL Dox, 24 h, luciferase normalized to cell viability
T1 construct: pLV[Tet]-Puro-TRE3G>Notch1-ICD; expressed in transfected cells; host or cells: 293A cells
Procedure: 293A cells expressing 1) pCMV-Tet-On 3G, 2) pLV[Tet]-Puro-TRE3G>Notch1-ICD, 3) pLV[Tet]-Puro-TRE3G>Notch2-ICD, 4) pLV[Tet]-Puro-TRE3G>Notch3-ICD, and 5) pCSL-RElement-Luc were used. When Doxycycline is added, the Tet-ON gene activates expression of hNotch1ICD, which together with endogenous NTC components binds to CSL responsive elements (pCSL-RElement-Luc) and expresses luciferase. 1×10^4 cells are plated in 100 μL (96-well format). 24 h later, compounds (10 mM stock in DMSO) are diluted in DMSO to 200×, then added (5 ul into 1 mL) to cell culture media containing 50 ng/mL Dox. This is then added 1:1 to cells. Final DMSO=0.25%, Dox=25 ng/mL. After 24 h, media is discarded, and cells are lysed in passive lysis buffer (Promega). Cells are rocked at room temperature for 15 min and then lysate is divided for luciferase assay (Luciferase Assay System, Promega) and cell viability (CellTiter Glo 2.0, Promega). Raw luciferase is normalized to cell viability, and then scaled to DMSO wells. Results are analyzed and IC50's are determined in GraphPad by nonlinear regression curve fitting (4 parameter) of dose response curves.

[1] = system: OE33 Esophageal Adenocarcinoma cell line; assay: OE33 Colony Formation Assay; assay type: cell-based; conditions: Homo sapiens, 200 cells/well, compound every 48 hours for 7 days, CellTiter-Glo
Procedure: OE33 Colony Formation Assay:
The OE33 Esophageal Adenocarcinoma cell line was cultured and plated into 96-well tissue culture plates under sparse conditions (200 cells/well). Test compounds were serially diluted in DMSO and then into culture media (final DMSO concentration=0.1%). Compound/media was then added to cells every 48 hours for a total of 7 days. Clonogenic growth was assessed using the CellTiter-Glo reagent, according to manufacturer (Promega) specifications. Percent inhibition was calculated as the percent of luminescence normalized to control (0.1% DMSO) wells. Nonlinear regression curve fitting was performed using GraphPad Prism software to determine EC50's.

T1 sequence (P46531 1754-2555 limits assumed): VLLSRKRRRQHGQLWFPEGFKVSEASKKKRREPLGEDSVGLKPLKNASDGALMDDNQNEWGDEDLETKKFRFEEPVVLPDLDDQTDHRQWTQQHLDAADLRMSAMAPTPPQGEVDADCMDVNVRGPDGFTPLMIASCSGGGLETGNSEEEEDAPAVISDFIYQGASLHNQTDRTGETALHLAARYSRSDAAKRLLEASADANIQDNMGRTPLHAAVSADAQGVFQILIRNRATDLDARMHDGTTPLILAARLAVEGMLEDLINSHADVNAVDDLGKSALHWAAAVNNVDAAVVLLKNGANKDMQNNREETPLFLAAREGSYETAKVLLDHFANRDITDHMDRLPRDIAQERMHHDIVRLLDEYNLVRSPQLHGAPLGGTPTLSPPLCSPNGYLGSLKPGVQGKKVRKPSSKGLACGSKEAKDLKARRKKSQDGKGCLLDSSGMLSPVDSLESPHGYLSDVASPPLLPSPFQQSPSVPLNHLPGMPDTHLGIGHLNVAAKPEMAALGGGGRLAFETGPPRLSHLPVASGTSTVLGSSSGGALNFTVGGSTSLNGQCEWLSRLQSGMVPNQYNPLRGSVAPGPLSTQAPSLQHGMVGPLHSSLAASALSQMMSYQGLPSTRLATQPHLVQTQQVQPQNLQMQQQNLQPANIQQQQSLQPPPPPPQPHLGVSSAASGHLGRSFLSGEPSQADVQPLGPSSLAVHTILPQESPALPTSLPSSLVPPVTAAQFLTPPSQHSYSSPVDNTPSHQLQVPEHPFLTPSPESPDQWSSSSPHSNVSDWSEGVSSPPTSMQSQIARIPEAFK

Compound	IC50 (Notch1)	EC50 [1]
COc1cc(-c2cc(C(F)(F)F)cc3c2n(C)c(=O)n3CC(=O)Nc2ccc(F)cc2F)cc(F)c1OCc1nnc[nH]1 [SSTN-494, 2-(4-(4-((4H-1,2,4-triazol-3-yl)methoxy)-3-fluoro-5-methoxyphenyl)-3-methyl-2-oxo-6-(trifluoromethyl)-2,3-dihydro-1H-benzo[d]imidazol-1-yl)-N-(2,4-difluorophenyl)acetamide hydrochloride]	12.1 µM	7.1 µM
COc1cc(-c2cc(C(F)(F)F)cc3c2n(C)c(=O)n3CC(=O)Nc2cccc(C(F)(F)F)c2)cc(F)c1OCc1nnc[nH]1 [SSTN-495, 2-(4-(4-((4H-1,2,4-triazol-3-yl)methoxy)-3-fluoro-5-methoxyphenyl)-3-methyl-2-oxo-6-(trifluoromethyl)-2,3-dihydro-1H-benzo[d]imidazol-1-yl)-N-(3-(trifluoromethyl)phenyl)acetamide hydrochloride]	4.3 µM	1.5 µM
COc1cc(-c2cc(C(F)(F)F)cc3c2n(C)c(=O)n3CC(=O)Nc2cccc(F)c2)cc(F)c1OCc1nnc[nH]1 [SSTN-496, 2-(4-(4-((4H-1,2,4-triazol-3-yl)methoxy)-3-fluoro-5-methoxyphenyl)-3-methyl-2-oxo-6-(trifluoromethyl)-2,3-dihydro-1H-benzo[d]imidazol-1-yl)-N-(3-fluorophenyl)acetamide hydrochloride]	6 µM	3.7 µM
COc1cc(-c2cc(C(F)(F)F)cc3c2n(C)c(=O)n3CC(=O)Nc2ccc(OC(F)F)cc2)cc(F)c1OCc1nnc[nH]1 [SSTN-497, 2-(4-(4-((4H-1,2,4-triazol-3-yl)methoxy)-3-fluoro-5-methoxyphenyl)-3-methyl-2-oxo-6-(trifluoromethyl)-2,3-dihydro-1H-benzo[d]imidazol-1-yl)-N-(4-(difluoromethoxy)phenyl)acetamide hydrochloride]	6.9 µM	2.9 µM
COc1cc(-c2cc(C(F)(F)F)cc3c2n(C)c(=O)n3CC(=O)Nc2ccc(SC)cc2)cc(F)c1OCc1nnc[nH]1 [SSTN-498, 2-(4-(4-((4H-1,2,4-triazol-3-yl)methoxy)-3-fluoro-5-methoxyphenyl)-3-methyl-2-oxo-6-(trifluoromethyl)-2,3-dihydro-1H-benzo[d]imidazol-1-yl)-N-(4-(methylthio)phenyl)acetamide hydrochloride]	8.5 µM	3 µM
COc1cc(-c2cc(C(F)(F)F)cc3c2n(C)c(=O)n3CC(=O)Nc2ccc(SC)cc2F)cc(F)c1OCc1nnc[nH]1 [SSTN-500, 2-(4-(4-((4H-1,2,4-triazol-3-yl)methoxy)-3-fluoro-5-methoxyphenyl)-3-methyl-2-oxo-6-(trifluoromethyl)-2,3-dihydro-1H-benzo[d]imidazol-1-yl)-N-(2-fluoro-4-(methylthio)phenyl)acetamide hydrochloride]	7.4 µM	2.7 µM
COc1cc(-c2cc(C(F)(F)F)cc3c2n(C)c(=O)n3CC(=O)Nc2cncc(C)c2)cc(F)c1OCc1nnc[nH]1 [SSTN-502, 2-(4-(4-((4H-1,2,4-triazol-3-yl)methoxy)-3-fluoro-5-methoxyphenyl)-3-methyl-2-oxo-6-(trifluoromethyl)-2,3-dihydro-1H-benzo[d]imidazol-1-yl)-N-(5-methylpyridin-3-yl)acetamide hydrochloride]	12 µM	8 µM
COc1cc(-c2cc(C(F)(F)F)cc3c2n(C)c(=O)n3CC(=O)Nc2ccc(S(C)(=O)=O)cc2)cc(F)c1OCc1nnc[nH]1 [SSTN-503, 2-(4-(4-((4H-1,2,4-triazol-3-yl)methoxy)-3-fluoro-5-methoxyphenyl)-3-methyl-2-oxo-6-(trifluoromethyl)-2,3-dihydro-1H-benzo[d]imidazol-1-yl)-N-(4-(methylsulfonyl)phenyl)acetamide hydrochloride]	12.5 µM	8.4 µM
COc1cc(-c2cc(C(F)(F)F)cc3c2n(C)c(=O)n3CC(=O)N(c2ccc(F)cc2)C(C)C)cc(F)c1OCc1nnc[nH]1 [SSTN-542, 2-(4-(4-((4H-1,2,4-triazol-3-yl)methoxy)-3-fluoro-5-methoxyphenyl)-3-methyl-2-oxo-6-(trifluoromethyl)-2,3-dihydro-1H-benzo[d]imidazol-1-yl)-N-(4-fluorophenyl)-N-isopropylacetamide]	3.8 µM	1.7 µM
COc1cc(-c2cc(C(F)(F)F)cc3c2n(C)c(=O)n3CC(=O)N(c2ccc(F)cc2)C2CC2)cc(F)c1OCc1nnc[nH]1 [SSTN-543, 2-(4-(4-((4H-1,2,4-triazol-3-yl)methoxy)-3-fluoro-5-methoxyphenyl)-3-methyl-2-oxo-6-(trifluoromethyl)-2,3-dihydro-1H-benzo[d]imidazol-1-yl)-N-cyclopropyl-N-(4-fluorophenyl)acetamide]	4.7 µM	2.9 µM
COc1cc(-c2cc(C(F)(F)F)cc3c2n(C)c(=O)n3CC(=O)Nc2cccc(-c3ccccc3)c2)cc(F)c1OCc1nnc[nH]1 [SSTN-546, 2-(4-(4-((4H-1,2,4-triazol-3-yl)methoxy)-3-fluoro-5-methoxyphenyl)-3-methyl-2-oxo-6-(trifluoromethyl)-2,3-dihydro-1H-benzo[d]imidazol-1-yl)-N-([1,1′-biphenyl]-3-yl)acetamide]	4.2 µM	3.6 µM
COc1cc(-c2cc(C(F)(F)F)cc3c2n(C)c(=O)n3CC(=O)Nc2cccc(C3CC3)c2)cc(F)c1OCc1nnc[nH]1 [SSTN-547, 2-(4-(4-((4H-1,2,4-triazol-3-yl)methoxy)-3-fluoro-5-methoxyphenyl)-3-methyl-2-oxo-6-(trifluoromethyl)-2,3-dihydro-1H-benzo[d]imidazol-1-yl)-N-(3-cyclopropylphenyl)acetamide]	5.9 µM	1.7 µM
COCc1cccc(NC(=O)Cn2c(=O)n(C)c3c(-c4cc(F)c(OCc5nnc[nH]5)c(OC)c4)cc(C(F)(F)F)cc32)c1 [SSTN-548, 2-(4-(4-((4H-1,2,4-triazol-3-yl)methoxy)-3-fluoro-5-methoxyphenyl)-3-methyl-2-oxo-6-(trifluoromethyl)-2,3-dihydro-1H-benzo[d]imidazol-1-yl)-N-(3-(methoxymethyl)phenyl)acetamide]	8.7 µM	2.3 µM
COc1cc(-c2cc(C(F)(F)F)cc3c2n(C)c(=O)n3CC(=O)Nc2cccc(C(C)(C)C)c2)cc(F)c1OCc1nnc[nH]1 [SSTN-555, 2-(4-(4-((4H-1,2,4-triazol-3-yl)methoxy)-3-fluoro-5-methoxyphenyl)-3-methyl-2-oxo-6-(trifluoromethyl)-2,3-dihydro-1H-benzo[d]imidazol-1-yl)-N-(3-(tert-butyl)phenyl)acetamide]	4.1 µM	1.7 µM
COc1cc(-c2cc(C(F)(F)F)cc3c2n(C)c(=O)n3CC(=O)Nc2cccc(N3CCOCC3)c2)cc(F)c1OCc1nnc[nH]1 [SSTN-558, 2-(4-(4-((4H-1,2,4-triazol-3-yl)methoxy)-3-fluoro-5-methoxyphenyl)-3-methyl-2-oxo-6-(trifluoromethyl)-2,3-dihydro-1H-benzo[d]imidazol-1-yl)-N-(3-morpholinophenyl)acetamide]	9.4 µM	4.7 µM
COc1cc(-c2cc(C(F)(F)F)cc3c2n(C)c(=O)n3CC(=O)Nc2cccc(N3CCN(C)CC3)c2)cc(F)c1OCc1nnc[nH]1 [SSTN-559, 2-(4-(4-((4H-1,2,4-triazol-3-yl)methoxy)-3-fluoro-5-methoxyphenyl)-3-methyl-2-oxo-6-(trifluoromethyl)-2,3-dihydro-1H-benzo[d]imidazol-1-yl)-N-(3-(4-methylpiperazin-1-yl)phenyl)acetamide]	19.9 µM	4.3 µM
COc1cc(-c2cc(C(F)(F)F)cc3c2n(C)c(=O)n3CC(=O)Nc2ccc(F)cc2)ccc1OCc1nnc[nH]1 [SSTN-598, 2-(4-(4-((4H-1,2,4-triazol-3-yl)methoxy)-3-methoxyphenyl)-3-methyl-2-oxo-6-(trifluoromethyl)-2,3-dihydro-1H-benzo[d]imidazol-1-yl)-N-(4-fluorophenyl)acetamide hydrochloride salt]	6.4 µM	11.6 µM
COc1cc(-c2cc(OC(F)(F)F)cc3c2n(C)c(=O)n3CC(=O)Nc2ccc(F)cc2)cc(F)c1OCc1nnc[nH]1 [SSTN-600, 2-(4-(4-((4H-1,2,4-triazol-3-yl)methoxy)-3-fluoro-5-methoxyphenyl)-3-methyl-2-oxo-6-(trifluoromethoxy)-2,3-dihydro-1H-benzo[d]imidazol-1-yl)-N-(4-fluorophenyl)acetamide hydrochloride salt]	5.8 µM	6.6 µM
COc1cc(-c2cc(Cl)cc3c2n(C)c(=O)n3CC(=O)Nc2ccc(F)cc2)cc(F)c1OCc1nnc[nH]1 [SSTN-601, 2-(4-(4-((4H-1,2,4-triazol-3-yl)methoxy)-3-fluoro-5-methoxyphenyl)-6-chloro-3-methyl-2-oxo-2,3-dihydro-1H-benzo[d]imidazol-1-yl)-N-(4-fluorophenyl)acetamide]	10.2 µM	7.1 µM
